Data set [1] in a line: Equilibrium solubility / dissolution of precipitates and API in pH 6.5 FaSSIF buffer. It is filed as physicochemical. The conditions noted are these: FaSSIF buffer pH 6.5, 37 °C. How it is done: To estimate the solution properties of different crystal structures in near neutral or slightly acidic environments, the equilibrium solubility of various precipitates and API in the pH 6.5 FaSSIF buffer medium (FaB) was investigated. An excess sample was added to the medium, and the test of equilibrium solubility was performed with the stirring rate of 200 revolutions per minute (rpm) under 37 °C for 24 h. Sample concentration was detected every minute by Pion’s in situ fiber-optic UV dissolution monitoring system. All measurements were performed three times.

A short description of data set [2]: Stirring PAMPA permeability assay of precipitates and API in different donor media. In kind it is in vitro ADME. How it is done: In order to simulate the permeation of compounds in different crystal structures in the GI tract, the stirring PAMPA method (Pion Inc., Billerica, MA, USA) was used to assess the passive transcellular permeability. The donor and acceptor chambers representing the GI tract and systemic circulation were separated by the artificial membrane (PVDF, polyvinylidenfluoride, 0.45 μm, 0.78 cm^2). The membrane surface was coated with 20 μL of lipid, which was used to simulate the microenvironment of lipids in vivo. Then, 16 mL PBS/FaSSIF/FeSSIF medium with pH 5.0 was added into the donor chamber, and 16 mL sink buffer was added into the acceptor chamber. In order to simulate the redissolution progress of precipitate in the GI tract, a slight excess of crystalline powder was added into the donor chamber. Both chambers were stirred at 200 rpm at 37 °C, and the concentration of each chamber was detected by immersed UV-probes at 320 nm and 340 nm for rivaroxaban and Drug-A, respectively. The flux was defined as the amount of compound passing through the unit area perpendicular to its flow direction in unit time and was calculated by the following equation [31]:(2) J(t)=Ct2−Ct1/A(t2−t1)×V where J(t) is the flux of a compound; Ct is the concentration of compound at t; V is the solution volume of the donor chamber; A is the area of the artificial membrane. […]
On the technique in general: The PAMPA barrier holds no transporters, so it reflects passive diffusion.

The conditions of data set [3]: stated in Materials, source not given; cited from earlier work.
Data set [4] can be described thus: Intrinsic dissolution rate (disc method, Mini-IDR). It is filed as physicochemical. As to conditions: same dissolution medium, 37 °C, 200 rpm. How it is done: The intrinsic dissolution rate (IDR) of compounds with different crystal structures was measured by the disc method based on the literature. About 10 mg of powder was loaded into the Mini-IDR compression system (Pion Inc., Billerica, MA, USA) and compressed at 100 psi (rivaroxaban) and 200 psi (Drug-A) for 1 min to obtain the miniaturized discs with a surface area of 0.071 cm^2. The discs were inserted into stirrer-die assembly and placed into flat-bottomed glass vials for dissolution analysis. At the start of the experiments, the magnetic stirrer was immediately switched on with the speed of 200 rpm, and then 10 mL of preheated (37 °C) dissolution media (FaSSIF buffer medium, FeSSIF buffer medium, FaSSIF medium and FeSSIF medium) were added into the vials at a constant temperature. The concentration was determined directly in the dissolution media every 30 s using an in situ UV probe for 2 h. All experiments were performed in triplicate, and the IDR was calculated with the following equation [30]:(1) IDR=V×dc/dt×1/A where V is the volume of medium in the glass vial; dc/dt is the slope of the straight line from the dissolution profile; A is the surface area of the disc.

The nature of data set [5]: Equilibrium solubility of API in different media. In kind it is physicochemical. The conditions noted are these: 37 °C, 200 rpm. The method, then: To select an appropriate method for the preparation of precipitates, the equilibrium solubility of model drugs was firstly investigated in various media, including pH 1.0 HCl solution, pH 5.0, pH 6.5, and pH 8.0 phosphate buffer solution (PBS), fasted state simulated intestinal fluid (FaSSIF, Fa), and fed-state simulated intestinal fluid (FeSSIF, Fe). The excess sample was added to the medium, and the test of equilibrium solubility was performed with the stirring rate of 200 revolutions per minute (rpm) under 37 °C for 24 h. Sample concentration was detected every minute by Pion’s in situ fiber-optic UV dissolution monitoring system (Pion Scientific Instruments, Billerica, MA, USA), a real-time online detector. All measurements were performed in triplicate.

Results on one compound are retold here after publication PMC8879660, “Characterizing the Physicochemical Properties of Two Weakly Basic Drugs and the Precipitates Obtained from Biorelevant Media” (Pharmaceutics, 2022).

≈ marks a conversion by molar mass, not a printed value. Where two headings read alike, the source gives them in different places.

What is called pKa is the pH at which an ionisable group is half protonated. What is called solubility is the concentration that dissolves in the medium under given conditions.

On to `O=C(NC[C@H]1CN(c2ccc(N3CCOCC3=O)cc2)C(=O)O1)c1ccc(Cl)s1` [Rivaroxaban], for which the “Dissolved rate of precipitates compared with API” value in data set [1] was “higher than that of API”. The “Difference in equilibrium solubility between API and precipitates obtained from biorelevant media” value in data set [1] (24 h, precipitates from FaSSIF, 0.5 × FeSSIF, FeSSIF, 2 × FeSSIF) is on record as “no statistical difference”. Also, the “Permeability of API compared with precipitates” value in data set [2] (FeSSIF in the donor chamber) was “larger than that of precipitates obtained from biorelevant media”. Also, in data set [2] (donor pH 5.0 PBS vs biorelevant medium, 37 °C, 200 rpm), the “Permeability in donor chamber containing aqueous medium relative to donor chamber containing biorelevant medium” value is reported as “about 1.92 fold”. Moreover, the log p in data set [3] is reported as 1.90. For the same compound, the pKa in data set [3] was 13.6. For the same compound, the “Influence of crystal structure (API vs precipitates) on intrinsic dissolution rate” value in data set [4] is listed as “significant influence”. The solubility at 24 h in data set [5] (FaSSIF, n = 3, read-out: Solubility of API, FaSSIF) came out at 6.17 µg/mL (≈ 14.2 µM); in data set [5] (FeSSIF, n = 3, read-out: Solubility of API, FeSSIF), 10.6 µg/mL (≈ 24.3 µM); in data set [5] (pH 1.0 HCl solution, n = 3, read-out: Solubility of API, pH 1.0 HCl), 6.84 µg/mL (≈ 15.7 µM); in data set [5] (pH 5.0 phosphate buffer solution (PBS), aqueous buffer, thermodynamic from solid, pH 5.0 PBS, n = 3, read-out: Solubility of API, pH 5.0 PBS), 4.85 µg/mL (≈ 11.1 µM); in data set [5] (pH 6.5 phosphate buffer solution (PBS), pH 6.5 PBS, n = 3, read-out: Solubility of API, pH 6.5 PBS) it was 5.85 µg/mL (≈ 13.4 µM); in data set [5] (pH 8.0 phosphate buffer solution (PBS), pH 8.0 PBS, n = 3, read-out: Solubility of API, pH 8.0 PBS) it was 5.87 µg/mL (≈ 13.5 µM).
